According to patent US20260209249A1, “NOVEL TRICYCLIC COMPOUND AS KRAS G12D INHIBITOR, AND USE THEREOF” (SK Biopharmaceuticals Co., priority 2022, published 2026):

Experiments:
[1] = target: T1, GppNHp-KRAS G12D mutant protein (Homo sapiens, UniProt P01116, G12D); test: Differential scanning fluorimetry (DSF) binding affinity to GppNHp-KRAS G12D mutant protein; conditions: DSF thermal shift, 10 μM compound, 4 μg KRAS protein, 50 mM HEPES (pH 7.5)
T1 construct: purchased Daegu Gyeongbuk Medical Innovation Foundation (DGMIF), made to order
Procedure, shortened: (§1)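 Each sample held 4 μg recombinant KRAS G12D (GDP- or GppNHp-bound) and 10 μM compound, incubated 30 min at room temperature before adding 2× SYPRO Orange. The GDP form was run in kit buffer, the GppNHp form in 50 mM HEPES pH 7.5. Melt was 25–99 °C at 0.05 °C/s (580/623 nm), reported as ΔTm versus no compound.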

[2] = target: T2, GDP-KRAS G12D mutant protein (Homo sapiens, UniProt P01116, G12D); test: Differential scanning fluorimetry (DSF) binding affinity to GDP-KRAS G12D mutant protein; conditions: DSF thermal shift, 10 μM compound, 4 μg KRAS protein
T2 construct: purchased Daegu Gyeongbuk Medical Innovation Foundation (DGMIF), made to order
Procedure, shortened: as §1

[3] = system: KRAS G12D mutant pancreatic cancer cell line AsPC-1; test: Cell viability assay using KRAS G12D mutant cells (AsPC-1, 3D culture, celltiter-glo 3D); assay type: cell-based; conditions: Homo sapiens, ASPC1, 5th day after compound treatment
Procedure: Test Example 3: Cell Viability Assay Using KRAS G12D Mutant Cells
The KRAS G12D mutant pancreatic cancer cell line AsPC-1 was obtained from the Korean Cell Line Bank (KCLB) and maintained in 100-mm dishes or T75 (75 cm^2) flasks using RPM11640+10% fetal bovine serum (FBS)+1% Penicillin-Streptomycin medium. The cells were cultured at 37° C. with 5% CO2. The number of viable cells was counted using Countess (Invitrogen).
When AsPC-1 cells reached 85-100% confluence in the flask, the cells were harvested using 1× trypsin/EDTA solution, and seeded into a 96-well plate for 3D culture at 1000 cells/100 μL/well. The next day, the compounds were diluted ⅕ with DMSO from 10 μM or 50 μM to 0.0001 μM or 0.0006 μM and treated 1:1 (v/v) in the plate where the cells were seeded.
Cell culture was terminated on the 5th day after compound treatment, and cell viability at each concentration was measured using the celltiter-glo 3D cell viability assay kit.
Cell viability assays were normalized to 100% for the DMSO-treated group and expressed as a percentage of the number of viable cells when treated with the compound.
Cell viability %=(average RLU of group treated with test substance−average RLU of untreated group)/(average RLU of group treated with DMSO−average RLU of untreated group)×100
The data were modeled using GraphPad Prism 9 (GraphPad Software) by applying a nonlinear regression curve fit with a four-parameter sigmoidal dose-response curve to determine cell viability as a function of compound concentration. The 50% inhibitory concentration (IC50) corresponds to the concentration at which the curve intersects the midpoint of cell viability. The results of the inhibitory effect of the compounds according to one embodiment of the present application on the viability of KRAS G12D mutant cells are presented in Table 4.

[4] = system: ERK phosphorylation (pERK) induced by KRAS G12D mutation; test: Inhibitory activity against ERK phosphorylation (pERK) induced by KRAS G12D mutation, immunofluorescence assay in AsPC-1 cells; assay type: cell-based; conditions: Homo sapiens, ASPC1, 3 h drug treatment, pERK (Thr202/Tyr204) signal normalized to DAPI
Excerpt: Test Example 2: Measurement of Inhibitory Activity Against ERK Phosphorylation (pERK) Induced by KRAS G12D Mutation (Immunofluorescence Assay)
Immunofluorescence is a method used to detect specific substances within cells or tissues through antigen-antibody interactions, and allows for the identification of the presence or absence of specific proteins by using antibodies labeled with various fluorescent dyes. After a primary antibody that recognizes a specific protein selectively binds to the epitope, a fluorescent antibody (secondary antibody) is bound to the primary antibody.
It was confirmed as follows that the compounds according to an embodiment of the present application inhibit phosphorylation of extracellular signal-regulated kinases (Phospho-ERK, pERK) induced by KRAS G12D mutation.
AsPC-1 cells were seeded at a density of 10,000 cells/well in RPMI-1640 medium containing 10% FBS and 1% Penicillin-Streptomycin in 384-well plates (Perkinelmer, #6057300) and allowed to attach for 16 h. After the cells attached to the plate, the cells were treated with drugs at a maximum concentration of 10 μM with a 3-fold serial dilution. After 3 h of drug treatment, the medium was removed and the cells were treated with 50 μL of 4% formaldehyde (Biosesang, #PC2031-050-00) for 20 min and washed three times with 50 μL of phosphate buffered saline (PBS).
50 μL of PBS containing 0.3% Triton X-100 (Sigma, #T8787-250 mL) was added and reacted for 20 minutes to allow antibody penetration into cells, and then the plate was washed three times with 50 μL of PBS. To block nonspecific binding of antibodies to the plate, 50 μL of PBS containing 2% BSA (sigma, #A7906-500G) and 0.01% Tween-20 (Sigma, #P1379-500 mL) (hereinafter referred to as PBS-T) was added, and reacted at room temperature for 2 hours.
To detect pERK, the primary antibody (cell signaling, #9101) was diluted 1:500 in PBS-T containing 2% BSA, 50 μL was added, and the plate was stored in a refrigerator at 4° C. for 16 hours to react, followed by washing three times with 50 μL of PBS-T. To visualize the primary antibody, the secondary antibody, i.e., anti-rabbit-Alexa Fluor 488 (ThermoFisher, #A11008), was diluted 1:1000 in PBS-T containing 2% BSA, 50 μL was added, and after reaction at room temperature for 1 hour, the plate was washed three times with 50 μL of PBS-T. Next, to visualize the nuclei of cells, DAPI (Thermofisher, #62248, 1 mg/mL) was diluted 1:1000 in PBS-T, 50 μL each was added, reacted at room temperature for 10 minutes, and washed three times with 50 μL of PBS-T. 50 μL of PBS-T was added to each well, and the plate was read for fluorescence value using HCS equipment (MOLECULAR DEVICES/ImageXpress Micro).
Data analysis was performed by normalizing the pERK (Thr202/Tyr204) signal to the DAPI signal and calculating the percentage relative to the DMSO as a control. The IC50 value was determined by fitting a four-parameter dose-response curve using the GraphPad Prism software (version 8.4.3), and interpolating the concentration at which 50% inhibition occurred. The results of calculating the inhibitory efficacy of the compounds according to one embodiment of the present application against KRAS G12D mutation-induced pERK activity are shown in Table 3.

## CCc1c(F)ccc2cc(O)cc(-c3cc4nc(OC[C@@]56CCCN5C[C@H](F)C6)nc(N5C[C@H]6CC[C@@H](C5)N6)c4n4ccnc34)c12 [Example 1, 4-(1-((1 R,5S)-3,8-diazabicyclo[3.2.1]octan-3-yl)-3-(((2R,7aS)-2-fluorotetrahydro-1H-pyrrolizin-7a(5H)-yl)methoxy)imidazo[1′,2′:1,6]pyrido[3,2-d]pyrimidin-6-yl)-5-ethyl-6-fluoronaphthalen-2-ol]
[1]
  GppNHp-KRAS G12D (ΔTmD, ° C.): 4.27 °C
[2]
  GDP-KRAS G12D (ΔTmD, ° C.): 10.05 °C
[3]
  IC50: 364 nM
[4]
  IC50: 322 nM

## CCc1c(F)ccc2cc(O)cc(-c3c(F)c4nc(OC[C@@]56CCCN5C[C@H](F)C6)nc(N5C[C@H]6CC[C@@H](C5)N6)c4c4cc(C)oc34)c12 [Example 45, 4-(1-((1R,5S)-3,8-diazabicyclo[3.2.1]octan-3-yl)-5-fluoro-3-(((2R,7aS)-2-fluorotetrahydro-1H-pyrrolizin-7a(5H)-yl)methoxy)-8-methylfuro[3,2-n]quinazolin-6-yl)-5-ethyl-6-fluoronaphthalen-2-ol]
[3]
  IC50: 37 nM
[4]
  IC50: 70 nM

## Cc1cc2c(o1)c(-c1cc(O)cc3ccc(F)c(F)c13)c(F)c1nc(OC[C@@]34CCCN3C[C@H](F)C4)nc(N3C[C@H]4CC[C@@H](C3)N4)c12 [Example 46, 4-(1-((1R,5S)-3,8-diazabicyclo[3.2.1]octan-3-yl)-5-fluoro-3-(((2R,7aS)-2-fluorotetrahydro-1H-pyrrolizin-7a(5H)-yl)methoxy)-8-methylfuro[3,2-n]quinazolin-6-yl)-5,6-difluoronaphthalen-2-ol]
[3]
  IC50: 25 nM
[4]
  IC50: 45 nM

## C#Cc1c(F)ccc2cc(O)cc(-c3c(F)c4nc(OC[C@@]56CCCN5C[C@H](F)C6)nc(NCC5(N(C)C)CCC5)c4c4cc(C)oc34)c12 [Example 48, 4-(1-(((1-(dimethylamino)cyclobutyl)methyl)amino)-5-fluoro-3-(((2R,7aS)-2-fluorotetrahydro-1H-pyrrolizin-7a(5H)-yl)methoxy)-8-methylfuro[3,2-n]quinazolin-6-yl)-5-ethynyl-6-fluoronaphthalen-2-ol]
[3]
  IC50: 136 nM
[4]
  IC50: 333 nM

## C#Cc1c(F)ccc2cc(N)cc(-c3cc4nc(OC[C@@]56CCCN5C[C@H](F)C6)nc(N5C[C@H]6CC[C@@H](C5)N6)c4c4cn(C)nc34)c12 [Example 71, 4-(9-((1R,5S)-3,8-diazabicyclo[3.2.1]octan-3-yl)-7-(((2R,7aS)-2-fluorotetrahydro-1H-pyrrolizin-7a(5H)-yl)methoxy)-2-methyl-2H-pyrazolo[4,3-f]quinazolin-4-yl)-5-ethynyl-6-fluoronaphthalen-2-amine]
[1]
  GppNHp-KRAS G12D (ΔTmD, ° C.): 4.88 °C
[2]
  GDP-KRAS G12D (ΔTmD, ° C.): 8.14 °C
[4]
  IC50: 512 nM

## CCc1c(F)ccc2cc(O)cc(-c3cc4nc(OC[C@@]56CCCN5C[C@H](F)C6)nc(N5C[C@H]6CC[C@@H](C5)N6)c4c4cn(C)nc34)c12 [Example 83, 4-(9-((1R,5S)-3,8-diazabicyclo[3.2.1]octan-3-yl)-7-(((2R,7aS)-2-fluorotetrahydro-1H-pyrrolizin-7a(5H)-yl)methoxy)-2-methyl-2H-pyrazolo[4,3-f]quinazolin-4-yl)-5-ethyl-6-fluoronaphthalen-2-ol]
[1]
  GppNHp-KRAS G12D (ΔTmD, ° C.): 5.76 °C
[2]
  GDP-KRAS G12D (ΔTmD, ° C.): 10.06 °C
[4]
  IC50: 100 nM

## CCc1c(F)ccc2cc(O)cc(-c3c(F)c4nc(OC[C@@]56CCCN5CC(=C(F)F)C6)nc(N5C[C@H]6CC[C@@H](C5)N6)c4c4cn(C)nc34)c12 [Example 97, 4-(9-((1R,5S)-3,8-diazabicyclo[3.2.1]octan-3-yl)-7-(((S)-2-(difluoromethylene)tetrahydro-1H-pyrrolizin-7a(5H)-yl)methoxy)-5-fluoro-2-methyl-2H-pyrazolo[4,3-f]quinazolin-4-yl)-5-ethyl-6-fluoronaphthalen-2-ol]
[1]
  GppNHp-KRAS G12D (ΔTmD, ° C.): 8.42 °C
[2]
  GDP-KRAS G12D (ΔTmD, ° C.): 14.20 °C
[3]
  IC50: 7 nM

## C#Cc1c(F)ccc2cc(O)cc(-c3c(F)c4nc(OCC5(CN6CC[C@@H](F)C6)CCC5)nc(N5C[C@H]6CC[C@@H](C5)N6)c4c4cn(C)nc34)c12 [Example 98, 4-(9-((1R,5S)-3,8-diazabicyclo[3.2.1]octan-3-yl)-5-fluoro-7-((1-(((R)-3-fluoropyrrolidin-1-yl)methyl)cyclobutyl)methoxy)-2-methyl-2H-pyrazolo[4,3-f]quinazolin-4-yl)-5-ethynyl-6-fluoronaphthalen-2-ol]
[1]
  GppNHp-KRAS G12D (ΔTmD, ° C.): 5.79 °C
[2]
  GDP-KRAS G12D (ΔTmD, ° C.): 11.43 °C
[3]
  IC50: 110 nM

## C#Cc1c(F)ccc2cc(N)cc(-c3c(F)c4nc(OC[C@@]56CCCN5CC(=C(F)F)C6)nc(N5C[C@H]6CC[C@@H](C5)N6)c4c4cn(C)nc34)c12 [Example 99, 4-(9-((1R,5S)-3,8-diazabicyclo[3.2.1]octan-3-yl)-7-(((S)-2-(difluoromethylene)tetrahydro-1H-pyrrolizin-7a(5H)-yl)methoxy)-5-fluoro-2-methyl-2H-pyrazolo[4,3-f]quinazolin-4-yl)-5-ethynyl-6-fluoronaphthalen-2-amine]
[1]
  GppNHp-KRAS G12D (ΔTmD, ° C.): 7.27 °C
[2]
  GDP-KRAS G12D (ΔTmD, ° C.): 11.13 °C
[3]
  IC50: 27 nM

## C#Cc1c(F)ccc2cc(O)cc(-c3c(F)c4nc(OC[C@]56CC(=C)CN5C[C@@H](F)C6)nc(N5C[C@H]6CC[C@@H](C5)N6)c4c4cn(C)nc34)c12 [Example 100, 4-(9-((1 R,5S)-3,8-diazabicyclo[3.2.1]octan-3-yl)-5-fluoro-7-(((2S,7aR)-2-fluoro-6-methylenetetrahydro-1H-pyrrolizin-7a(5H)-yl)methoxy)-2-methyl-2H-pyrazolo[4,3-n]quinazolin-4-yl)-5-ethynyl-6-fluoronaphthalen-2-ol]
[1]
  GppNHp-KRAS G12D (ΔTmD, ° C.): 8.92 °C
[2]
  GDP-KRAS G12D (ΔTmD, ° C.): 14.50 °C
[3]
  IC50: 29 nM
